“Also recorded” adds a separate entry of the source. Like-named read-outs stand apart in the source and are kept apart here.
Columns and labels:
[1] = target: T1, hERG (Homo sapiens, UniProt Q12809); assay: Ion channel screening, hERG; format: cell-based; details: n=16, read-out: inhibition of hERG currents (ion channel screening)
T1 construct: expressed in transfected cells; host or cells: HEK293 (ATCC), polyclonal, stably transfected, G418 selection
Excerpt: (§5) The parameter measured was the maximum outward current evoked on stepping to +60 mV from the holding potential of −80 mV. hERG currents were evoked by a three-pulse protocol where voltage was first stepped to +40 mV for two sec from a holding potential of −80 mV to inactivate hERG channels. The voltage is then stepped back to −50 mV for two sec to evoke a tail current prior to returning to the holding potential for 1 sec. The parameter measured was the amplitude of the 3rd pulse tail current upon stepping back to −50 mV after the step to +40 mV. Human HCN4 currents were evoked by a single pulse from a holding potential of −30 mV to a potential of −110 mV for 4 sec prior to returning to −30 mV. The parameter measured was the maximum inward current evoked upon stepping to −110 mV from the holding potential of −30 mV. Human Kir2.1 currents were evoked from a holding potential of −20 mV by a series of 10 500 msec pulses to −120 mV using a 200 msec interval between pulses. The parameters measured were the amplitudes of the instantaneous inward currents evoked on stepping to −120 mV for the 1st pulse and the maximum inward current at the end of the 10th hyperpolarizing pulse. For all experiments, data were filtered for seal quality, seal drop, and current amplitude.

[2] = test system: beagle dogs; assay: Electrocardiography studies in beagle dogs; format: in vivo
Method: At each time point, eight-lead ECGs were continuously recorded for at least 30 sec. At least five consecutive ECG waveforms and the associated RR intervals deemed most representative were selected for quantitative analysis at each time point. The ECG interval measurements (PR, QRS, QT, QTc, RR, and heart rate) were made on a single lead. The measured waveforms at each time point were averaged and reported. The QTc interval was calculated using the Fridericia (QT/[RR]^1/3) method. The RR interval was used to derive the heart rate and in QT interval correction. Qualitative assessments included normal sinus rhythm variations, abnormal sinus rhythms, conductance or repolarization abnormalities, bradycardia, and tachycardia. Group comparisons of ECG data (PR, QRS, QT, QTc, and heart rate) were analyzed using ANOVA.

[3] = test system: tumor; details: cited from earlier work
[4] = test system: breast adenocarcinoma cell lines; details: breast adenocarcinoma lines of NCI 60 screen; read-out: IC50 anticancer activity; cited from earlier work
[5] = Toxicity and toxicokinetics in rats, IV twice weekly for 29 d; format: in vivo, Sprague-Dawley rats; details: Sprague-Dawley, rat; for Cmax / AUC(0-t): plasma, iv, rats; for AUC(0-t): read-out: AUC0-24
Method: (§1) Ninety-six male and female Sprague-Dawley rats (6-7 weeks old) were received from Charles River Laboratories, (Raleigh, N.C.) and catheterized via a femoral vein prior to arrival. Animals were acclimated in individual stainless-steel cages with access to water and Certified Rodent Diet #2014C (Envigo RMS) ad libitum for 6 d prior to study initiation. Environmental controls were set to maintain a temperature range of 20 to 26° C., a relative humidity range of 30 to 70%, eight or greater air changes/h, and a 12-h light/dark cycle. Animals were infused with sterile isotonic (0.9%) saline for a minimum of 4 d (0.20 mL/h for males or 0.15 mL/h for females) during the predose phase. At initiation of dosing, animals were 8 to 9 weeks old, and body weights ranged from 283 to 341 g for males and 188 to 238 g for females. Gamitrinib formulated as indicated above was administered by IV infusion on d […], 8, 11, 15, 18, 22, 25, and 29 of the dosing phase at 1, 10, 25 mg/kg/dose and dose volume of 5 mL/kg. The vehicle control administered with the same schedule contained 2.5% DMSO, 0.125% polysorbate 80, 0.031% lecithin, 1.25% sucrose and 4.375% dextrose. Animals were checked twice daily throughout the duration of the study for mortality, abnormalities, and signs of pain or distress. Detailed observations were conducted for each animal up to two times during the predose phase and for each toxicity animal prior to dosing on d 1, 8, 15, 22, and 29 of the dosing phase and on d 1, 7, and 14 of the recovery phase. Blood samples were collected on d. 1, 4 and 29 of the dosing phase 5 min, 1 h and 24 h post-dose, maintained on chilled cryoracks and centrifuged within 1 h of collection. Tissue samples harvested from each animal were embedded in paraffin, sectioned, and slides were prepared and stained with hematoxylin and eosin.

[6] = test system: Sprague-Dawley rats; assay: as above; format: in vivo; details: for reduction in mean body weights: male rats
Method: as §1

[7] = target: CYP3A4 (Homo sapiens, UniProt P08684); assay: CYP inhibition in liver microsomes, CYP3A4; format: in vitro ADME; details: human liver microsomes 0.1 mg/mL
Method: (§6) After addition of prototypical CYP substrates in 250 μL, samples were incubated for 10 min (CYP1A2, CYP2B6, CYP2C9, and CYP3A4) or 20 min (CYP2C8) at 37° C. in 5% CO2. […] Samples were analyzed for metabolite formation by LC-MS/MS. The results were expressed using the peak area ratio of analyte to internal standard, based on the calibration curves.
(§7) where Range=fitted uninhibited value, s=slope factor, x=inhibitor concentration, y=% control activity.

[8] = target: CYP2C9 (Homo sapiens, UniProt P11712); assay: CYP inhibition in liver microsomes, CYP2C9; format: in vitro ADME; details: human liver microsomes 0.1 mg/mL
Method: as §6, §7

[9] = Stability in human plasma; format: in vitro ADME
[10] = target: Human HCN4 (Homo sapiens, UniProt Q9Y3Q4); assay: Ion channel screening, HCN4; format: cell-based; details: n=16, read-out: inhibition of HCN4 currents
Excerpt: as §5

[11] = target: Human Kir2.1 (Homo sapiens, UniProt P63252); assay: Ion channel screening, Kir2.1; format: cell-based; details: n=15, pulse 10, read-out: inhibition of Kir2.1 currents
Excerpt: as §5

[12] = in vitro; details: human
Method: (§2) Caco2 cells (2×10^4/well) were seeded onto apical chambers of a 24-multiwell insert plate and incubated at 37° C. in 5% CO2. After 21 d, the transepithelial electrical resistance (TEER) in ohms was read for each insert well as a quality control for monolayer integrity (>900 ohms or 300 ohms cm^2). The cell monolayers were incubated with 400 μL transport buffer on the apical (A) and 1.2 mL on the basolateral (B) sides for 30 min. After preincubation, dosing solution was added to the apical (400 μL, A-to-B, donor) or basolateral sides (1.2 mL, B-to-A, donor) or receiving buffer to the apical (400 μL, B-to-A, receiver) or basolateral sides (1.2 mL, A-to-B, receiver) for 90 min at 37° C. in 5% CO2. […] Papp·A>B (nm/s) was calculated with Equation 1.
(§3) Papp Efflux Ratio (ER) was calculated with Equation 2.
(§4) Propranolol (high permeability marker, non-P-gp substate) and digoxin (P-gp substrate) were used as controls.

[13] = test system: Caco2 intestinal cell monolayer; assay: in vitro; details: human, Caco-2, 90 min
Method: as §2, §3, §4

[14] = 1 mg/kg/dose (NOAEL), d 29 of dosing

Sequence of Human HCN4 (Q9Y3Q4 whole entry): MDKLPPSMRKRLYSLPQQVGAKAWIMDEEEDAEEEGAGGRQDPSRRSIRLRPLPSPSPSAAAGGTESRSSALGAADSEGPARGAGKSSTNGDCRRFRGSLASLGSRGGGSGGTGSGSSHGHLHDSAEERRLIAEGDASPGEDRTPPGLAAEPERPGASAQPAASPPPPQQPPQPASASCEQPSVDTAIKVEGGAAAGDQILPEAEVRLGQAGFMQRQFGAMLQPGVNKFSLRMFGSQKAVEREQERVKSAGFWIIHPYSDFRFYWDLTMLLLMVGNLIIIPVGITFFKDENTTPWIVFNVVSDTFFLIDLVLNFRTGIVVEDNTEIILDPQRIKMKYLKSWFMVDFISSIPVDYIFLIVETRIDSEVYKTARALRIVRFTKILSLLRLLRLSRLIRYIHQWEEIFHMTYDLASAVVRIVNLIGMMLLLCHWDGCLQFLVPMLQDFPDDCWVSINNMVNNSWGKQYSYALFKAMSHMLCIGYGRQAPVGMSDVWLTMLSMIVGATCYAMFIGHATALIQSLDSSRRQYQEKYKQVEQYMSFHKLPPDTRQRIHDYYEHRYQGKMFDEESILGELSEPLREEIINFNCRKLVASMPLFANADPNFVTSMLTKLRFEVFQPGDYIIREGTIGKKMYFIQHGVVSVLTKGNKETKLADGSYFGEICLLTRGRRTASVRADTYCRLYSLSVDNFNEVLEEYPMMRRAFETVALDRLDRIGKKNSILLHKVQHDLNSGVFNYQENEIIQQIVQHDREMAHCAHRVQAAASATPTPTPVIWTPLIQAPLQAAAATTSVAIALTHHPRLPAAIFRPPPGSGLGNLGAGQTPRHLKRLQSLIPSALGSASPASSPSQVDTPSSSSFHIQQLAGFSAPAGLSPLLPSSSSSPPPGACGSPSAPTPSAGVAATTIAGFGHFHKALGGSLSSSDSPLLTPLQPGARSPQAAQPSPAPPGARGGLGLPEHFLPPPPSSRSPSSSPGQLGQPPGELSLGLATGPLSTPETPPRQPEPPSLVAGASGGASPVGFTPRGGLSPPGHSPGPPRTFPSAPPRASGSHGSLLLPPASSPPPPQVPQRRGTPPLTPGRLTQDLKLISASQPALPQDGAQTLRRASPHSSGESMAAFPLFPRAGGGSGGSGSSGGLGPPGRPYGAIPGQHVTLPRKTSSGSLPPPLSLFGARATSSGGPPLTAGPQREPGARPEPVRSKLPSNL
Sequence of CYP2C9 (P11712 whole entry): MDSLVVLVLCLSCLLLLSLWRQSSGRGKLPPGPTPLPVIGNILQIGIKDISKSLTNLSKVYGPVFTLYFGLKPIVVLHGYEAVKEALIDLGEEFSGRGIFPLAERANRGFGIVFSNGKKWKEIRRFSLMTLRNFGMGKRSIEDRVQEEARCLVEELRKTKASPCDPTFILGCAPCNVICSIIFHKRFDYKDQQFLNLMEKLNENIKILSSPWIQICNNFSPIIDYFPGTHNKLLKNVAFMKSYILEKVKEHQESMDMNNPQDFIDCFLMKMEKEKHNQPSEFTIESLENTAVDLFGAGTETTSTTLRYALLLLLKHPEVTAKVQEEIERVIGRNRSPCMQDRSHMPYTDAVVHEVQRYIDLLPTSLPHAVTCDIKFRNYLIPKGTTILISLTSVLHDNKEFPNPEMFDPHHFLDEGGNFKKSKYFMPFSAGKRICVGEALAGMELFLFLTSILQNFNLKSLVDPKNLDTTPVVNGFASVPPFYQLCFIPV
Sequence of CYP3A4 (P08684 whole entry): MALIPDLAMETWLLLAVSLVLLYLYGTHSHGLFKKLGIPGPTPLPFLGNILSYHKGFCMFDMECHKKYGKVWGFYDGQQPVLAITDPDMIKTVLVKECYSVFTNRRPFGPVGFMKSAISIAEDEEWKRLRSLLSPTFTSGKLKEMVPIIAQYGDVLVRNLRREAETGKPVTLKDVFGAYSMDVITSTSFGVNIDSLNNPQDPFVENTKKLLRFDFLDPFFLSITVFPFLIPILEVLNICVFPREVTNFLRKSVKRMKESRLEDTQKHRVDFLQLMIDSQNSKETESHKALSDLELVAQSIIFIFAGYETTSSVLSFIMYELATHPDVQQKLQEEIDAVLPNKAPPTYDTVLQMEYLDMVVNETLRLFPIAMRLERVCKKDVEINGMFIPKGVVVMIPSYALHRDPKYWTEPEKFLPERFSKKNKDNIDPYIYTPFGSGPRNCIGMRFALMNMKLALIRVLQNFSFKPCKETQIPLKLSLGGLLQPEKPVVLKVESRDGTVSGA
Sequence of Human Kir2.1 (P63252 whole entry): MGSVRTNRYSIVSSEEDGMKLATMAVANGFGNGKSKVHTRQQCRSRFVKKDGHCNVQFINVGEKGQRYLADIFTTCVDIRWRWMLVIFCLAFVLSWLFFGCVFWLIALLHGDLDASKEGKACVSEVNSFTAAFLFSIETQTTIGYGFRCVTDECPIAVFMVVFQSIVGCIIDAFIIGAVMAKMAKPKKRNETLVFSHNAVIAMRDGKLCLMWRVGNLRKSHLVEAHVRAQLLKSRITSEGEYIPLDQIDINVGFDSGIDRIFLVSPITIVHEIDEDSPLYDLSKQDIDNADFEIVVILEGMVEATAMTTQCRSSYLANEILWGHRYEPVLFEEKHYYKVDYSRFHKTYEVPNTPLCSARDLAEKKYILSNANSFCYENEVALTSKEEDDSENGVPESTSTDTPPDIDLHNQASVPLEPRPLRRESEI
T1 sequence (Q12809 whole entry): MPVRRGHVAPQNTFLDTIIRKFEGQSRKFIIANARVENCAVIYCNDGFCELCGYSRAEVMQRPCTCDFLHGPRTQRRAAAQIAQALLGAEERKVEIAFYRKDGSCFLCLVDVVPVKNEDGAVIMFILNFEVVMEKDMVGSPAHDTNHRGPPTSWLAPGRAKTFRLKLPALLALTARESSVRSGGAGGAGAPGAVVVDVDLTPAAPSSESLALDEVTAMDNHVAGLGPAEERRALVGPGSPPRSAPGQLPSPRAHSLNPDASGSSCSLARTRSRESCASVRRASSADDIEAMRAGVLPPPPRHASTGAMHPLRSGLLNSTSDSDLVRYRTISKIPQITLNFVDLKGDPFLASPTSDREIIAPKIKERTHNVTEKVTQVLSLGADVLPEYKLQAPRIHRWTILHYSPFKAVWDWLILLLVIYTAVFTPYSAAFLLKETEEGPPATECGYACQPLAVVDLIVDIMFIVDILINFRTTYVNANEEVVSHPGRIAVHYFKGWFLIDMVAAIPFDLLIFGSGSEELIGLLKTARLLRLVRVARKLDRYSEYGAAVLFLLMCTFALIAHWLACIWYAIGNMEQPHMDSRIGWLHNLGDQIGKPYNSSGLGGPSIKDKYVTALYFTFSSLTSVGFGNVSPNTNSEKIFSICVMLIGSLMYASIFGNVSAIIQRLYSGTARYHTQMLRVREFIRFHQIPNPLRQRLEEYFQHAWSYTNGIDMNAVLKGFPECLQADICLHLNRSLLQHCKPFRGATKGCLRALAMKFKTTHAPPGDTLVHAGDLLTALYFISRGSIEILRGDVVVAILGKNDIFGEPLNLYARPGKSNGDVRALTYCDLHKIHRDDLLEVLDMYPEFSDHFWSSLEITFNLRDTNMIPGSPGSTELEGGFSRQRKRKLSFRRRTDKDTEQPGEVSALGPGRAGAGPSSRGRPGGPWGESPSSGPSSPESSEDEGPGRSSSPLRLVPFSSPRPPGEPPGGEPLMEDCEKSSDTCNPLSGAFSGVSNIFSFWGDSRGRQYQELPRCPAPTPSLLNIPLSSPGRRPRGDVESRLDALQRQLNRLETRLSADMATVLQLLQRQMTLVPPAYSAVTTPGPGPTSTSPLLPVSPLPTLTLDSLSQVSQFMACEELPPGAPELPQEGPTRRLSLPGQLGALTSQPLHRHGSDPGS

CO[C@H]1/C=C\C=C(/C)C(=O)NC2=CC(=O)C(NCCCCCC[P+](c3ccccc3)(c3ccccc3)c3ccccc3)=C(C[C@@H](C)C[C@H](OC)[C@H](O)[C@@H](C)/C=C(\C)[C@@H]1OC(N)=O)C2=O [Gamitrinib, 17-Demethoxy-17-((6-(triphenylphosphonio)hexyl)amino)geldanamycin]
inhibition at 10 µM [1]: 37.9 ± 1.7%
ECG changes in PR interval, QRS duration, QT interval, or heart rate ([2]; d 32 of dosing at 1.25, 3.33 or 6.25 mg/kg/dose, d 11 of recovery at 6.25): No Gamitrinib-related ECG changes
rhythm abnormalities or qualitative ECG changes ([2]; dogs): No other rhythm abnormalities or qualitative ECG changes were observed
prolongation of QTc interval ([2]; female dogs 6.25 mg/kg/dose, both sexes 1.25 or 3.33 mg/kg/dose): No Gamitrinib-related prolongation of QTc interval
prolongation of QTc interval ([2]; one out of 5 male dogs at 6.25 mg/kg/dose, d 32 of dosing): 17 ms
prolongation of QTc interval ([2]; one out of 5 male dogs at 6.25 mg/kg/dose, d 32 of dosing, reversed in recovery): 7%
therapeutically effective dose in mice [3]: 10 mg/kg
IC50 [4]: 160 to 3300 nM
Cmax [5, 14]: 87.1 ng/mL
AUC(0-t) [5, 14]: 174 ng·h/mL
Cmax ([5]; 10 mg/kg/dose (STD 10), d 29): 311 ng/mL
AUC(0-t) ([5]; 10 mg/kg/dose (STD 10), d 29): 1300 ng·h/mL
Vd ([5]; both sexes, in vivo, rats, 1, 10 or 25 mg/kg/dose IV twice weekly, d 4 and d 29, read-out: Vss): 12.2 to 90 L/kg
reduction in mean body weights ([6]; 10 mg/kg/dose IV twice weekly): −5.5%
reduction in mean body weights ([6]; 25 mg/kg/dose IV twice weekly): −5.7%
urinalysis or ophthalmic changes ([6]; rats): No effects
Gamitrinib-related clinical observations ([6]; rats administered 10 mg/kg/dose): inguinal swelling, piloerection, hypoactivity, and sensitivity to touch at the infusion site
microscopic findings at the infusion site ([6]; rats administered 10 mg/kg/dose (both sexes)): mixed cell inflammation at the catheter/infusion site
kidney histology ([6]; rats, 25 mg/kg/dose IV, 25 mg/kg): slight kidney tubule degeneration/regeneration; also recorded: marked kidney tubule degeneration/regeneration; also recorded: tubular degeneration/regeneration
serum urea nitrogen (UN) and creatinine concentrations ([6]; rats, 25 mg/kg/dose, 25 mg/kg): Minimally to mildly higher; also recorded: mild elevation of urea nitrogen
serum urea nitrogen ([6]; rats, >10 mg/kg/dose): mild elevation
no observed adverse effect level (NOAEL) ([6]; rats, IV twice weekly 29 d): 1 mg/kg/dose
severely toxic dose in 10% of the animals (STD 10) ([6]; rats, IV twice weekly 29 d): 10 mg/kg/dose
Alterations in clinical chemistry parameters ([6]; rats, highest Gamitrinib dose level tested): mildly to moderately higher neutrophil and platelet (Plts) counts, minimally prolonged partial thromboplastin time (PT), lower albumin, higher globulin, and alkaline phosphatase concentrations
drug accumulation ([6]; rats, Cmax and AUC0-24 similar on d 4 and d 29): no drug accumulation after multiple doses
Gamitrinib-related mortality ([6]; toxicity rats, 10 mg/kg/dose): one male
Gamitrinib-related mortality ([6]; toxicity rats, 25 mg/kg/dose): two males and one female
Gamitrinib-related mortality ([6]; toxicokinetic rats, 10 mg/kg/dose): two toxicokinetic females
Gamitrinib-related mortality ([6]; toxicokinetic rats, 25 mg/kg/dose): one toxicokinetic female
IC50 [7]: 120 to 200 nM
IC50 [8]: 1100 nM
recovery [9]: 82.8 ± 3%
stability in human plasma [9]: 91.4%
inhibition at 10 µM [10]: -0.2 ± 3.7%
inhibition at 10 µM [11]: -7.3 ± 3.4%
Papp B→A at 90 min ([12]; Caco-2): 1.09 ×10⁻⁶ cm/s
efflux ratio at 90 min ([12]; Caco-2, Papp Efflux Ratio (ER)): 5.77
Papp A→B at 90 min ([12]; Caco-2, Papp): 0.19 ×10⁻⁶ cm/s
efflux ratio at 90 min ([12]; Caco-2, Pexact Efflux Ratio): 5.54
Papp A→B at 90 min ([12]; Caco-2, Pexact): 0.197 ×10⁻⁶ cm/s
Pexact, B > A [13]: 1.092 ×10⁻⁶ cm/s
